Laboratory results published in US9096832B2, “Differentiation of human embryonic stem cells” (LifeScan, Inc., priority 2007, dated 2015).

Key:
[1] = system: H9P49 embryonic stem cells; test: Pancreatic endoderm under feeder-free conditions: retinoic acid analogues (real-time PCR); assay type: cell-based, human
Description: At day 5, cells were collected for evaluation by FACS and real-time PCR. […] The resulting definitive endoderm cells at day 5 were exposed to the following media conditions to induce pancreatic endoderm formation: culturing in DMEM/F12 media supplemented with 2% FBS and 1 μM all-trans retinoic acid (RA) (Catalog#R2625, Sigma, MO), or 0.1-10 μM AM-580 (4-[(5,6,7,8-Tetrahydro-5,5,8,8-tetramethyl-2-naphthalenyl)carboxamido]benzoic acid, Catalog#A8843, Sigma, MO), or 0.1-1 μM TTNPB (4-[(E)-2-(5,6,7,8-Tetrahydro-5,5,8,8-tetramethyl-2-naphthalenyl)-1-propenyl]benzoic acid Arotinoid acid, Catalog#T3757, Sigma, MO) for 3 days. AM-580 and TTNPB are retinoic acid analogs with affinity for retinoic acid receptors. RA treatment was followed by additional three day treatment in DMEM/F 12 media supplemented with 2% FBS and 20-50 ng/ml bFGF (Catalog#F0291, Sigma, MO).

[2] = system: H9P46-P48 embryonic stem cells; test: Definitive endoderm on […]: effect of GSK-3B inhibitor IX (FACS CXCR4, PCR); assay type: cell-based, human; conditions: day 5
Description: In order to confirm that the effect of Wnt-3a was through the Wnt pathway, a GSK-3 inhibitor was used to activate the downstream targets of Wnt, such as beta catenin. […] FIG. 29, panel a depicts the expression of CXCR4 by FACS at day 5 in the absence of Wnt-3a or GSK-3B inhibitor, b) +20 ng/ml Wnt-3a, c) +1000 nM GSK-3B inhibitor IX, d) +500 nM GSK-3B inhibitor IX, e) +100 nM GSK-3B inhibitor IX, f) +10 nM GSK-3B inhibitor IX, g) +100 nM GSK-3B inhibitor IX for days 1-2, and h) +10 nM GSK-3B inhibitor IX for days 1-2.

[3] = system: human embryonic stem cell line H1 at passage 55; test: Definitive endoderm on human serum coated plates (real-time PCR); assay type: cell-based; conditions: with activin A, vs activin A only
Description: Cultures of the human embryonic stem cell line H1 at passage 55 were grown and differentiated on human serum (Sigma, #H1388, MO) coated plates. 0.5 ml of human serum was added to each well of 6 well tissue culture treated dish, incubated for 1 hr at room temperature, and aspirated before adding human embryonic stem cells. […] These findings parallel our findings for human embryonic stem cells cultured on […]™ or human fibronectin coated plates.

H1P54 ES cells = test: Evaluation of various GSK-3B inhibitors in DE formation (real-time PCR); assay type: cell-based, human; conditions: 100 nM for first two days, compared to GSK-3B inhibitor VIII and XII
Description: The effectiveness of a number of commercially available GSK-3B inhibitors was evaluated in formation of DE from human embryonic stem cells. The following GSK-3B inhibitors were evaluated at 100 nM: GSK-3B inhibitor VIII (Catalog#361549, Calbiochem, CA), GSK-3B inhibitor IX (Catalog#361550, Calbiochem, CA), GSK-3B inhibitor XI (Catalog#361553, Calbiochem, CA), GSK-3B inhibitor XII (Catalog#361554, Calbiochem, CA). […] Control cultures were treated with low serum plus high dose of AA. FIG. 47, panels a and b depicts the gene expression of definitive endoderm markers at day 5. GSK-3B inhibitor IX and XI were both effective in inducing DE formation as compared to GSK-3B inhibitor VIII and XII.

[4] = system: human embryonic stem cell line H9; test: Formation of pancreatic endocrine cells with gamma-secretase inhibitor L-685,458 (PCR); assay type: cell-based
Description: After this time interval, the cells were then treated for six days with combinations of retinoic acid and FGF as outlined in Example 2, then the culture medium was removed and replaced with medium comprising DMEM/F12 with 2% FBS, containing the γ-secretase inhibitors L-685,458 at 10 μM for three days.
Final data were expressed relative to a calibrator sample.

[5] = system: human embryonic stem cell line H9; conditions: activin A or retinoic acid alone
Description: Cultures were harvested and samples of mRNA were collected for analysis.
Cells seeded on 0.1% Matrigel (BD) coated dishes were fixed with 4% paraformaldheyde for 20 min at room temperature. Fixed cells were blocked for 1 h at room temperature with PBS/0.1%BSA/10% normal chick serum /0.5% Triton X-100 and then incubated overnight with primary antibodies in PBS/0.1%BSA/10% normal chick serum at 4° C. After three washes in PBS/0.1% BSA, fluorescent secondary antibodies at a 1:100 dilution in PBS were incubated with cells for 1 h at room temperature to allow binding. Control samples included reactions where the primary antibody was omitted or where the primary antibody was replaced with corresponding matched negative control immunoglobulins at the same concentration as the primary antibodies. […]
Real-time PCR amplification and quantitative analysis: Unless otherwise stated, all reagents were purchased from Applied Biosystems. […] For each primer/probe set, a Ct value was determined as the cycle number at which the fluorescence intensity reached a specific value in the middle of the exponential region of amplification. Relative gene expression levels were calculated using the comparative Ct method. […] The normalized amount of target was calculated as 2-ΔCt, assuming amplification to be 100% efficiency. […]

H9P44 cells = test: Definitive endoderm on MEFs: growth factor combinations in low serum (FACS CXCR4, RT-PCR; Table V); assay type: cell-based, human; conditions: H9P44 on MEF, Day 3, normalized to Group 1 (control)
Description: H9P44 cells were plated onto 6 well plates previously coated with mitomycin treated mouse embryonic fibroblasts (MEF). Cells were grown until 70 to 80% confluency in ES cell medium consisting of DMEM/F12 (Invitrogen/GIBCO) supplemented with 20% knockout serum replacement, 100 nM MEM nonessential amino acids, 0.5 mM beta-mercaptoethanol, 2 mM L-glutamine (all from Invitrogen/GIBCO) and 8 ng/ml human basic fibroblast growth factor (bFGF) (R&D Systems).
Growth factors were added to increasing concentration of FBS in a stepwise manner as indicated in the following regimen: • Day 0: 0% FBS in DMEM/F12 • Day 1: 0.5% FBS in DMEM/F12 • Day 2: 2% FBS in DMEM/F12. • Day 3: Cells were harvested for FACS analysis and RT-PCR.
All growth factors were purchased from R&D Systems, MN. A detailed description and concentration of growth factors for each treatment group is shown below. • 1. Control—No growth factor added • 2. […] IL-4 (10 ng/ml) • 10. SDF1a (20 ng/ml) • 11. […] BMP2 (100 ng/ml)+BMP-4 (100 ng.ml)+BMP-6 (100 ng/ml)+BMP-7 (100 ng/ml) • 13.
Cells were harvested on Day 3 of DE protocol treatment. For analysis, an aliquot of treated cells was used for RNA preparation for RT-PCR and the rest of cells used for FACS analysis.
For RT-PCR analysis, cells were analyzed for expression of selected panel of definitive endoderm markers.

[6] = system: pancreatic endoderm cells derived from human embryonic stem cells; test: Passage and expansion of pancreatic endoderm cells in culture with FGF10 (Q-PCR); assay type: cell-based; conditions: 50 ng/ml FGF10, 6 day culture period
Description: The low serum DMEM/F12 contained 0% (v/v) fetal bovine serum (FBS) on day 1, 0.5% (v/v) FBS on day two and 2% (v/v) FBS on each day thereafter. After four days of differentiation, the cells were cultured in low serum DMEM/F12 contained 2% (v/v) FBS, 1 μM retinoic acid and 50 ng/ml bFGF for a total of six more days. After the six days of differentiation, the cells were maintained in culture in low serum DMEM/F12 contained 2% (v/v) FBS in the presence of 50 ng/ml FGF10 for a total of 6 days. During the six-day culture period, the pancreatic endoderm cells were passaged twice and cell population-doubling time is about 36 to 48 hours during this 6-day culture. On days 0, 3, and 6 of culture, Q-PCR was used to measure the expression of marker genes indicative of pancreatic endoderm.

[7] = system: H7P44 and H9P46 embryonic stem cells; test: Definitive endoderm on […]: role of Wnt ligands (FACS CXCR4, real-time PCR); assay type: cell-based, human; conditions: low serum+AA+/-Wnt ligands, H7 and H9, five days
Description: In some of the cultures 20 ng/ml Wnt-3a (Catalog#1324-WN-002, R&D Systems, MN), 20 ng/ml Wnt-5a (Catalog#654-WN-010, R&D Systems, MN), 25 ng/ml Wnt-7a (Catalog#3008-WN-025, R&D Systems, MN), or 25 ng/ml Wnt-5b (Catalog#3006-WN-025, R&D Systems, MN) was added throughout the five day treatment. FIG. 24 depicts phase contrast images of H9P46 definitive endoderm culture in the presence of high concentration of (a) AA or (b) AA+20 ng/ml Wnt-3a. FIG. 25 depicts the expression of CXCR4 by FACS at day 5 for H7P44, and H9P46 lines cultured on […]™ (1:30 dilution) and exposed to the DE protocol+Wnt-3a (FIG. 25, panels b and d) and −Wnt-3a (FIG. 25, panels a and c).

CC1(C)CCC(C)(C)c2cc(C(=O)Nc3ccc(C(=O)O)cc3)ccc21 [AM-580, 4-[(5,6,7,8-Tetrahydro-5,5,8,8-tetramethyl-2-naphthalenyl)carboxamido]benzoic acid]
AFP and CDX-2 expression ([1]; 10 μM AM-580): suppressed | expression of PDX-1 ([1]; 10 μM AM-580): maintaining a high expression

O=C1Nc2cc(Br)ccc2/C1=C1/Nc2ccccc2/C1=N\O [GSK-3B inhibitor IX]
number of CXCR4 positive cells ([2]; 20 ng/ml Wnt-3a or 100-1000 nM GSK-3B inhibitor): significantly increased | expression of CXCR4 by FACS ([2]; 10 nm GSK-3B inhibitor): very low | expression of definitive endoderm markers [3]: Robust expression | inducing DE formation (H1P54 ES cells): effective

O=C1NC(=O)C(c2cn(CCCO)c3ncccc23)=C1c1cnccn1 [GSK-3B inhibitor XI]
inducing DE formation (H1P54 ES cells): effective

CC(C)C[C@H](NC(=O)[C@H](Cc1ccccc1)C[C@@H](O)[C@H](Cc1ccccc1)NC(=O)OC(C)(C)C)C(=O)N[C@@H](Cc1ccccc1)C(N)=O [L-685,458]
NeuroD1 expression ([4]; L-685,458 10 μM): increased further | expression of Hes-1 ([4]; L-685,458 10 μM): decrease | time of maximal inhibition of Hes-1 expression ([4]; L-685,458 10 μM): day three post treatment | Ngn3 expression relative to activin A alone or retinoic acid with FGFs ([4]; L-685,458 10 μM for three days): approximately 50 fold | increase of insulin expression ([4]; L-685,458 10 μM for three days): 70 fold

CC1=C(/C=C/C(C)=C/C=C/C(C)=C/C(=O)O)C(C)(C)CCC1 [retinoic acid, all-trans retinoic acid]
foregut endoderm markers, such as CDX-2 and AFP ([1]; 1 μM RA followed by bFGF): robust expression | pancreatic endoderm markers, such as PDX-1 ([1]; 1 μM RA followed by bFGF): significantly upregulates | expression of Pdx1 [5]: did not induce

Group 9: IL-4 (10 ng/ml)
CXCR4 relative expression (H9P44 cells): 1.4 | Goosecoid relative expression (H9P44 cells): 0.9 | HNF-3B relative expression (H9P44 cells): 0.89 | Oct-4 relative expression (H9P44 cells): 0.85 | SOX-2 relative expression (H9P44 cells): 1.2 | Sox17 relative expression (H9P44 cells): 1

B1: FGF10: fibroblast growth factor FGF10, 50 ng/ml (protein, UniProt O15520 38-208, looked up)
Fibroblast growth factor 10: QALGQDMVSPEATNSSSSSFSSPSSAGRHVRSYNHLQGDVRWRKLFSFTKYFLKIEKNGKVSGTKKENCPYSILEITSVEIGVVAVKAINSNYYLAMNKKGKLYGSKEFNNDCKLKERIEENGYNTYASFNWQHNGRQMYVALNGKGAPRRGQKTRRKNTSAHFLPMVVHS
expression of pancreatic endoderm marker Pdx1 [6]: maintained expression

B2: Wnt 5a: Wnt ligand, Catalog#654-WN-010, R&D Systems (protein, UniProt P22725 62-380, looked up)
Protein Wnt-5a: IIGAQPLCSQLAGLSQGQKKLCHLYQDHMQYIGEGAKTGIKECQYQFRHRRWNCSTVDNTSVFGRVMQIGSRETAFTYAVSAAGVVNAMSRACREGELSTCGCSRAARPKDLPRDWLWGGCGDNIDYGYRFAKEFVDARERERIHAKGSYESARILMNLHNNEAGRRTVYNLADVACKCHGVSGSCSLKTCWLQLADFRKVGDALKEKYDSAAAMRLNSRGKLVQVNSRFNSPTTQDLVYIDPSPDYCVRNESTGSLGTQGRLCNKTSEGMDGCELMCCGRGYDQFKTVQTERCHCKFHWCCYVKCKKCTEIVDQFVCK
expression of definitive endoderm markers (real-time PCR) [7]: minimal impact

B3: Wnt-5b: Wnt ligand, Catalog#3006-WN-025, R&D Systems (protein, UniProt Q9H1J7 18-359, looked up)
Protein Wnt-5b: QLLTDANSWWSLALNPVQRPEMFIIGAQPVCSQLPGLSPGQRKLCQLYQEHMAYIGEGAKTGIKECQHQFRQRRWNCSTADNASVFGRVMQIGSRETAFTHAVSAAGVVNAISRACREGELSTCGCSRTARPKDLPRDWLWGGCGDNVEYGYRFAKEFVDAREREKNFAKGSEEQGRVLMNLQNNEAGRRAVYKMADVACKCHGVSGSCSLKTCWLQLAEFRKVGDRLKEKYDSAAAMRVTRKGRLELVNSRFTQPTPEDLVYVDPSPDYCLRNESTGSLGTQGRLCNKTSEGMDGCELMCCGRGYNQFKSVQVERCHCKFHWCCFVRCKKCTEIVDQYICK
expression of definitive endoderm markers (real-time PCR) [7]: minimal impact

B4: Wnt-7a: Wnt ligand, Catalog#3008-WN-025, R&D Systems (protein, UniProt O00755 32-349, looked up)
Protein Wnt-7a: LGASIICNKIPGLAPRQRAICQSRPDAIIVIGEGSQMGLDECQFQFRNGRWNCSALGERTVFGKELKVGSREAAFTYAIIAAGVAHAITAACTQGNLSDCGCDKEKQGQYHRDEGWKWGGCSADIRYGIGFAKVFVDAREIKQNARTLMNLHNNEAGRKILEENMKLECKCHGVSGSCTTKTCWTTLPQFRELGYVLKDKYNEAVHVEPVRASRNKRPTFLKIKKPLSYRKPMDTDLVYIEKSPNYCEEDPVTGSVGTQGRACNKTAPQASGCDLMCCGRGYNTHQYARVWQCNCKFHWCCYVKCNTCSERTEMYTCK
expression of definitive endoderm markers (real-time PCR) [7]: minimal impact

B5: Group 2: Activin A (100 ng/ml) (protein, UniProt P08476 311-426, looked up)
Inhibin beta A chain: GLECDGKVNICCKKQFFVSFKDIGWNDWIIAPSGYHANYCEGECPSHIAGTSGSSLSFHSTVINHYRMRGHSPFANLKSCCVPTKLRPMSMLYYDDGQNIIKKDIQNMIVEECGCS
CXCR4 relative expression (H9P44 cells): 19.5 | Goosecoid relative expression (H9P44 cells): 2.8 | HNF-3B relative expression (H9P44 cells): 0.64 | Oct-4 relative expression (H9P44 cells): 1.1 | SOX-2 relative expression (H9P44 cells): 0.91 | Sox17 relative expression (H9P44 cells): 45
